Test results as given in ChEMBL document CHEMBL1201862, “PubChem BioAssay data set” (2004).
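Method: 48-hour compound exposure of cells in 96-well plates, five concentrations, linear interpolation of endpoints. GI50 = concentration required for 50% inhibition of growth.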 Activity calls are given as the source filed them. No stated cut-off is given here; in the data, active = GI50 up to about 1.1 µM and inactive = higher.

Experiments:
Test in all cases: inhibition of tumour cell growth, NCI panel, 48 h
[1] = tested on: EKVX
[2] = tested on: HCC 2998
[3] = tested on: HOP-62
[4] = tested on: HOP-92
[5] = tested on: HT-29
[6] = tested on: Hs-578T
[7] = tested on: IGROV-1
[8] = tested on: MOLT-4
[9] = tested on: Malme-3M
[10] = tested on: NCI-H522
[11] = tested on: NCI/ADR-RES
[12] = tested on: OVCAR-3
[13] = tested on: OVCAR-4
[14] = tested on: RXF 393
[15] = tested on: SF-268
[16] = tested on: SF-295
[17] = tested on: SK-MEL-5
[18] = tested on: SNB-19
[19] = tested on: T47D
[20] = tested on: U-251

For `C#CCn1c(I)cc2c(c1=O)COC(=O)[C@]2(O)CC`, the GI50 [1] was > 100 µM (inactive), the GI50 [2] was > 100 µM (inactive) and the GI50 [3] was > 100 µM (inactive). For the same compound, the GI50 [4] was > 100 µM (inactive), the GI50 [5] was > 100 µM (inactive) and the GI50 [6] was > 100 µM (inactive). For the same compound, the GI50 [7] was > 100 µM (inactive), the GI50 [8] was > 100 µM (inactive) and the GI50 [9] was > 100 µM (inactive). For the same compound, the GI50 [10] was > 100 µM (inactive), the GI50 [11] was > 100 µM (inactive) and the GI50 [12] was > 100 µM (inactive). For the same compound, the GI50 [13] was > 100 µM (inactive), the GI50 [14] was > 100 µM (inactive) and the GI50 [15] was > 100 µM (inactive). The GI50 [16] was > 100 µM (inactive), the GI50 [17] was > 100 µM (inactive) and the GI50 [18] was > 100 µM (inactive). For the same compound, the GI50 [19] was > 100 µM (inactive) and the GI50 [20] was > 100 µM (inactive).
With `CCCCOC(=O)Nc1ccc(S(=O)(=O)Nc2ccccc2Cl)cc1` the GI50 [1] was 20.7 µM (inactive), the GI50 [2] was 14.1 µM (inactive) and the GI50 [3] was 21.7 µM (inactive). For the same compound, the GI50 [4] was 13.7 µM (inactive), the GI50 [5] was 21 µM (inactive) and the GI50 [6] was 21.5 µM (inactive). For the same compound, the GI50 [7] was 21.7 µM (inactive), the GI50 [8] was 12.6 µM (inactive) and the GI50 [9] was 24.8 µM (inactive). For the same compound, the GI50 [10] was 18.5 µM (inactive), the GI50 [11] was 18.2 µM (inactive) and the GI50 [12] was 19.1 µM (inactive). For the same compound, the GI50 [13] was 12.4 µM (inactive), the GI50 [14] was 21.3 µM (inactive) and the GI50 [15] was 16.9 µM (inactive). The GI50 [16] was 17.3 µM (inactive), the GI50 [17] was 12 µM (inactive) and the GI50 [18] was 22.6 µM (inactive). For the same compound, the GI50 [19] was 26.5 µM (inactive) and the GI50 [20] was 17.5 µM (inactive).
`Cc1cn(CCCCCCC2=NCCCN2)c(=O)[nH]c1=O` was tested, and the GI50 [1] was > 100 µM (inactive), the GI50 [2] was > 100 µM (inactive) and the GI50 [3] was > 100 µM (inactive). The GI50 [4] was > 100 µM (inactive), the GI50 [5] was > 100 µM (inactive) and the GI50 [6] was > 100 µM (inactive). The GI50 [7] was > 100 µM (inactive), the GI50 [8] was > 100 µM (inactive) and the GI50 [9] was > 100 µM (inactive). The GI50 [10] was > 100 µM (inactive), the GI50 [11] was > 100 µM (inactive) and the GI50 [12] was > 100 µM (inactive). The GI50 [13] was > 100 µM (inactive), the GI50 [14] was > 100 µM (inactive) and the GI50 [15] was > 100 µM (inactive). The GI50 [16] was > 100 µM (inactive), the GI50 [17] was > 100 µM (inactive) and the GI50 [18] was > 100 µM (inactive). The GI50 [19] was > 100 µM (inactive) and the GI50 [20] was > 100 µM (inactive).
With `CC1=CC[C@@]2(C)CC[C@](O)(C(C)C)C2C(OC(=O)c2ccccc2)C1` (stereo not given in full) the GI50 [1] was 15.5 µM (inactive), the GI50 [2] was 11.8 µM (inactive) and the GI50 [3] was 18 µM (inactive). For the same compound, the GI50 [4] was 15.1 µM (inactive), the GI50 [5] was 16.7 µM (inactive) and the GI50 [6] was 21.2 µM (inactive). For the same compound, the GI50 [7] was 15.6 µM (inactive), the GI50 [8] was 17.1 µM (inactive) and the GI50 [9] was 21 µM (inactive). The GI50 [10] was 16.5 µM (inactive), the GI50 [11] was 19.7 µM (inactive) and the GI50 [12] was 17.5 µM (inactive). For the same compound, the GI50 [13] was 25 µM (inactive), the GI50 [14] was 12.7 µM (inactive) and the GI50 [15] was 23.2 µM (inactive). For the same compound, the GI50 [16] was 15.6 µM (inactive), the GI50 [17] was 18.3 µM (inactive) and the GI50 [18] was 20.7 µM (inactive). The GI50 [19] was 20.1 µM (inactive) and the GI50 [20] was 27.8 µM (inactive).
With `Cc1ccc(C(=O)O)c(CC2Cc3c(C)cccc3C2=O)c1` (stereo not given) the GI50 [1] was > 100 µM (inactive), the GI50 [2] was > 100 µM (inactive) and the GI50 [3] was > 100 µM (inactive). The GI50 [4] was > 100 µM (inactive), the GI50 [5] was > 100 µM (inactive) and the GI50 [6] was > 100 µM (inactive). The GI50 [7] was > 100 µM (inactive), the GI50 [8] was > 100 µM (inactive) and the GI50 [9] was > 100 µM (inactive). The GI50 [10] was > 100 µM (inactive), the GI50 [11] was > 100 µM (inactive) and the GI50 [12] was > 100 µM (inactive). The GI50 [13] was > 100 µM (inactive), the GI50 [14] was > 100 µM (inactive) and the GI50 [15] was > 100 µM (inactive). The GI50 [16] was > 100 µM (inactive), the GI50 [17] was > 100 µM (inactive) and the GI50 [18] was > 100 µM (inactive). The GI50 [19] was > 100 µM (inactive) and the GI50 [20] was > 100 µM (inactive).
For `COC(OC)C1(c2ccccc2)Oc2ccccc2C1=O` (stereo not given), the GI50 [1] was > 100 µM (inactive), the GI50 [2] was > 100 µM (inactive) and the GI50 [3] was > 100 µM (inactive). The GI50 [4] was > 100 µM (inactive), the GI50 [5] was > 100 µM (inactive) and the GI50 [6] was > 100 µM (inactive). The GI50 [7] was > 100 µM (inactive), the GI50 [8] was 68.7 µM (inactive) and the GI50 [9] was > 100 µM (inactive). The GI50 [10] was > 100 µM (inactive), the GI50 [11] was 80.7 µM (inactive) and the GI50 [12] was > 100 µM (inactive). The GI50 [13] was > 100 µM (inactive), the GI50 [14] was > 100 µM (inactive) and the GI50 [15] was > 100 µM (inactive). For the same compound, the GI50 [16] was 90.2 µM (inactive), the GI50 [17] was 65.6 µM (inactive) and the GI50 [18] was > 100 µM (inactive). For the same compound, the GI50 [19] was > 100 µM (inactive) and the GI50 [20] was > 100 µM (inactive).
In the case of `COC(=O)[C@H](CC(C)C)NC1=C(Cl)C(=O)c2c(O)ccc(O)c2C1=O`, the GI50 [1] is reported as > 10 µM (inactive), the GI50 [2] is reported as > 10 µM (inactive) and the GI50 [3] is reported as > 10 µM (inactive). The GI50 [4] was > 10 µM (inactive), the GI50 [5] was 3.01 µM (inactive) and the GI50 [6] was > 10 µM (inactive). For the same compound, the GI50 [7] was > 10 µM (inactive), the GI50 [8] was 3.52 µM (inactive) and the GI50 [9] was 0.887 µM (active). The GI50 [10] was > 10 µM (inactive), the GI50 [11] was > 10 µM (inactive) and the GI50 [12] was 1.73 µM (inactive). For the same compound, the GI50 [13] was > 10 µM (inactive), the GI50 [14] was > 10 µM (inactive) and the GI50 [15] was > 10 µM (inactive). The GI50 [16] was > 10 µM (inactive), the GI50 [17] was > 10 µM (inactive) and the GI50 [18] was > 10 µM (inactive). For the same compound, the GI50 [19] was > 10 µM (inactive) and the GI50 [20] was > 10 µM (inactive).
